Results published in US20250151724A1, “Liquid Soil Treatments Containing Choline” (Harrell's, LLC, priority 2023, published 2025).

Test system: creeping bentgrass
Assay: Experiment No. 1: growth chamber pot trial, foliar GB and choline under heat and mild drought stress
Format: in vivo
Details: for Root Viability: TTC method
Protocol: A growth chamber pot trial was conducted as follows. […] The choline used in this study was supplied in the form of choline chloride from Sigma-Aldrich, Inc. (St. Louis, MO). […] These conditions simulated summer putting green stress. The treatments were as follows: • 1. […] GB at 0.5 oz./1,000 ft^2 every 14 days. • 3. GB at 1.0 oz./1,000 ft^2 every 14 days. • 4. […] The rate and source of fertilization for treatments #2-7 was the same as treatment #1 (fertilized control), so all seven treatments received identical fertility input. […] The term “low rate” is used in this description of Experiment No. 1 to refer to 0.5 oz./1,000 ft^2 treatments, while the term “high rate” is used to refer to 1.0 oz./1,000 ft^2 treatments. […] Photochemical efficiency (PE). Photochemical Efficiency was measured with a chlorophyll fluorometer (OS-50II, Opti-Sciences, Inc., Hudson, NH) biweekly based on the Fv/Fm, which is the ratio of variable chlorophyll fluorescence (Fv) to maximum chlorophyll fluorescence (Fm). […] Chlorophyll content. After clipping yields were weighed, leaf tissues were ground into powder, and chlorophyll was extracted in pure acetone content for 72 hours, and the absorbance was measured using a spectrophotometer. • e. Leaf carotenoids were extracted in the same sample as for chlorophyll content and carotenoids were measured using a spectrophotometer (Zhang et al., 2005). • f. Leaf proline content. […] After centrifuging, the supernatant was collected, and proline was analyzed according to Wu et al., 2017. • g. Root viability. […] Root growth characteristics. At the end of trial, roots from each pot were washed and cleaned. Roots were scanned using WinRHIZOTM technology (Regent Instruments Inc., Quebec, Canada), and root length, root surface area, root diameter, and root volume were calculated. (Zhang et al., 2017). • i. Root biomass of each pot was determined at the end of the trial. Roots were dried at 65° C. for 72 hours before being weighed.

C[N+](C)(C)CC(=O)[O-] [GB, Glycine betaine, reference compound]
Clippings dry wt (0.5 oz/1000 ft^2, Total): 0.686bc g/pot | Carotenoids (0.5 oz/1000 ft^2, day 0): 1.31a mg/g FW | Chlorophyll (0.5 oz/1000 ft^2, day 0): 3.43a mg/g FW | Leaf color (1-9, 9 = dark green) (0.5 oz/1000 ft^2, day 0): 7.5a | PE (Fv/Fm) (0.5 oz/1000 ft^2, day 0): 0.777a | Proline (0.5 oz/1000 ft^2, day 0): 19.0a mg/g FW | Carotenoids (0.5 oz/1000 ft^2, day 14): 1.31a mg/g FW | Chlorophyll (0.5 oz/1000 ft^2, day 14): 3.44a mg/g FW | Clippings dry wt (0.5 oz/1000 ft^2, day 14): 0.159ab g/pot | Leaf color (1-9, 9 = dark green) (0.5 oz/1000 ft^2, day 14): 7.1bc | PE (Fv/Fm) (0.5 oz/1000 ft^2, day 14): 0.744ab | Proline (0.5 oz/1000 ft^2, day 14): 21.2bc mg/g FW | Carotenoids (0.5 oz/1000 ft^2, day 28): 1.00ab mg/g FW | Chlorophyll (0.5 oz/1000 ft^2, day 28): 2.89abc mg/g FW | Clippings dry wt (0.5 oz/1000 ft^2, day 28): 0.143b g/pot | Leaf color (1-9, 9 = dark green) (0.5 oz/1000 ft^2, day 28): 6.3b | PE (Fv/Fm) (0.5 oz/1000 ft^2, day 28): 0.676ab | Proline (0.5 oz/1000 ft^2, day 28): 35.1a mg/g FW | Carotenoids (0.5 oz/1000 ft^2, day 42): 1.13a mg/g FW | Chlorophyll (0.5 oz/1000 ft^2, day 42): 2.80ab mg/g FW | Clippings dry wt (0.5 oz/1000 ft^2, day 42): 0.152a g/pot | Leaf color (1-9, 9 = dark green) (0.5 oz/1000 ft^2, day 42): 6.9ab | PE (Fv/Fm) (0.5 oz/1000 ft^2, day 42): 0.668ab | Proline (0.5 oz/1000 ft^2, day 42): 34.9bc mg/g FW | Carotenoids (0.5 oz/1000 ft^2, day 56): 1.08ab mg/g FW | Chlorophyll (0.5 oz/1000 ft^2, day 56): 2.63abc mg/g FW | Clippings dry wt (0.5 oz/1000 ft^2, day 56): 0.233ab g/pot | Leaf color (1-9, 9 = dark green) (0.5 oz/1000 ft^2, day 56): 6.3bc | PE (Fv/Fm) (0.5 oz/1000 ft^2, day 56): 0.646ab | Proline (0.5 oz/1000 ft^2, day 56): 62.9ab mg/g FW | Root Biomass (0.5 oz/1000 ft^2, end of trial): 1.34b g/pot | Root Diameter (0.5 oz/1000 ft^2, end of trial): 0.189ab mm | Root Length (0.5 oz/1000 ft^2, end of trial): 33.1b mm/cm^3 | Root Volume (0.5 oz/1000 ft^2, end of trial): 9.6a dm^3/cm^3 | Root Viability (0.5 oz/1000 ft^2, end of trial): 0.877abcd A490/g FW | Clippings dry wt (1.0 oz/1000 ft^2, Total): 0.876a g/pot | Carotenoids (1.0 oz/1000 ft^2, day 0): 1.30a mg/g FW | Chlorophyll (1.0 oz/1000 ft^2, day 0): 3.42a mg/g FW | Leaf color (1-9, 9 = dark green) (1.0 oz/1000 ft^2, day 0): 7.5a | PE (Fv/Fm) (1.0 oz/1000 ft^2, day 0): 0.743a | Proline (1.0 oz/1000 ft^2, day 0): 18.6a mg/g FW | Carotenoids (1.0 oz/1000 ft^2, day 14): 1.31a mg/g FW | Chlorophyll (1.0 oz/1000 ft^2, day 14): 3.43a mg/g FW | Clippings dry wt (1.0 oz/1000 ft^2, day 14): 0.211a g/pot | Leaf color (1-9, 9 = dark green) (1.0 oz/1000 ft^2, day 14): 7.3abc | PE (Fv/Fm) (1.0 oz/1000 ft^2, day 14): 0.765a | Proline (1.0 oz/1000 ft^2, day 14): 21.6bc mg/g FW | Carotenoids (1.0 oz/1000 ft^2, day 28): 1.02b mg/g FW | Chlorophyll (1.0 oz/1000 ft^2, day 28): 2.71bc mg/g FW | Clippings dry wt (1.0 oz/1000 ft^2, day 28): 0.225a g/pot | Leaf color (1-9, 9 = dark green) (1.0 oz/1000 ft^2, day 28): 7.0a | PE (Fv/Fm) (1.0 oz/1000 ft^2, day 28): 0.715ab | Proline (1.0 oz/1000 ft^2, day 28): 25.8b mg/g FW | Carotenoids (1.0 oz/1000 ft^2, day 42): 0.99ab mg/g FW | Chlorophyll (1.0 oz/1000 ft^2, day 42): 2.47ab mg/g FW | Clippings dry wt (1.0 oz/1000 ft^2, day 42): 0.189a g/pot | Leaf color (1-9, 9 = dark green) (1.0 oz/1000 ft^2, day 42): 6.5b | PE (Fv/Fm) (1.0 oz/1000 ft^2, day 42): 0.673ab | Proline (1.0 oz/1000 ft^2, day 42): 38.9abc mg/g FW | Carotenoids (1.0 oz/1000 ft^2, day 56): 0.96ab mg/g FW | Chlorophyll (1.0 oz/1000 ft^2, day 56): 2.55bc mg/g FW | Clippings dry wt (1.0 oz/1000 ft^2, day 56): 0.252a g/pot | Leaf color (1-9, 9 = dark green) (1.0 oz/1000 ft^2, day 56): 6.4abc | PE (Fv/Fm) (1.0 oz/1000 ft^2, day 56): 0.651a | Proline (1.0 oz/1000 ft^2, day 56): 68.5a mg/g FW | Root Biomass (1 oz/1000 ft^2, end of trial): 1.64ab g/pot | Root Diameter (1 oz/1000 ft^2, end of trial): 0.174b mm | Root Length (1 oz/1000 ft^2, end of trial): 40.3ab mm/cm^3 | Root Volume (1 oz/1000 ft^2, end of trial): 9.7a dm^3/cm^3 | Root Viability (1 oz/1000 ft^2, end of trial): 1.076ab A490/g FW
